Results: patent EP0345955B1, “Anti-microbial composition and use thereof” (IMPERIAL CHEMICAL INDUSTRIES PLC, priority 1988, dated 1989)

System: mixed fungal spore suspension of Alternaria alternata, Aureobasidium pullulans, Cladosporium herbarum, Phoma violacea, and Stemphylium dendriticum
Experiment: Evaluation as a paint film fungicide (acrylic emulsion paint on wooden test pieces, spray inoculated)
Assay type: cell-based
Settings: 25°C, four weeks, two scores per cell; for Fungal Growth L2: L2 (leached for two days); for Fungal Growth UL: UL (test pieces not leached); for Fungal Growth L1: L1 (leached with water spray for one day)
Description: In the following examples, the compositions obtained were subjected to microbiological evaluation as paint film fungicides. The compositions were also tested for anti-algal properties. The microbiological testing was effected as follows: The products were tested for activity against fungi which were one or more of Alternaria alternata, Aureobasidum pullulans, Cladosporium herbarum, Phoma violacea and Stemphylium dendriticum.
The compositions to be tested were obtained as described in Examples 1 to 6 and the Comparative Examples. The compositions were added as a solid blend to samples of an exterior acrylic emulsion paint (based on Revacryl 1A latex at pH 9) in glass bottles and mixed to give final active ingredient levels in the paint of 1.0, 0.5 and 0.25% w/v.
The bottles containing paint plus biocide composition were sealed and stored at 40°C for three days.
Small wooden test pieces were prepared for each paint composition by priming and then brushing on two full even coats.
One set of the coated test pieces was stored at ambient temperature in the dark. A further set of coated test pieces was placed in a leaching device in which the test pieces were sprayed with water for one day and the test pieces were removed from the leaching device and dried. Yet a further set of coated test pieces was subjected to leaching for two days.
The coated test pieces were then transferred to a high humidity chamber. Each test piece was then spray inoculated with a mixed fungal spore suspension of Alternaria alternata, Aureobasidium pullulans, Cladosporium herbarum, Phoma violacea, and Stemphylium dendriticum.
Incubation was carried out at 25°C for four weeks. After this period the paint films were examined for fungal growth by naked eye and by stereo optical microscope.
The compositions of Examples 1 to 6 and the Comparative Examples were evaluated as paint film fungicides using the technique described previously herein. For comparative purposes paints containing only tetrachloroisophthalonitrile (NC); 3-(3,4-dichlorophenyl)-1,1-dimethylurea (DU); 2,3,5,6-thetrachloro-4-(methylsulphonyl) pyridine (DS); di-iodomethyl-4-methylphenylsulphone (AM); or zinc oxide (ZO) were also evaluated under the same conditions.

[1] = 0.25% w/v active ingredient in paint
[2] = 0.5% w/v active ingredient in paint
[3] = 1.0% w/v active ingredient in paint

| SMILES | Fungal Growth L2 [1] | Fungal Growth UL [1] | Fungal Growth L2 [2] | Fungal Growth UL [2] | Fungal Growth L2 [3] | Fungal Growth UL [3] | Fungal Growth L1 [1] | Fungal Growth L1 [2] | Fungal Growth L1 [3] |
| --- | --- | --- | --- | --- | --- | --- | --- | --- | --- |
| Cc1ccc(S(=O)(=O)C(I)I)cc1 [AM, di-iodomethyl-4-methylphenylsulphone] | 4,4 | 0,0 | 1,2 | 0,0 | 0,0 | 0,0 | – | – | – |
| N#Cc1c(Cl)c(Cl)c(Cl)c(C#N)c1Cl [NC, tetrachloroisophthalonitrile] | 5,5 | 3,4 | 3,5 | 2,3 | 4,5 | 0,0 | 4,4 | 4,5 | 2,5 |
| CN(C)C(=O)Nc1ccc(Cl)c(Cl)c1 [DU, 3-(3,4-dichlorophenyl)-1,1-dimethylurea] | – | – | – | – | 5,5 | 5,5 | – | – | – |
| CS(=O)(=O)c1c(Cl)c(Cl)nc(Cl)c1Cl [DS, 2,3,5,6-tetrachloro-4-(methylsulphonyl)pyridine] | 5,4 | 2,2 | 2,3 | 1,1 | 1,0 | 0.1 | – | – | – |
